Measured values taken from PMC6148764, “Consensus design for improved thermostability of lipoxygenase from Anabaena sp. PCC 7120” (BMC Biotechnology, 2018).

How the values were obtained:
Test in all cases: hydroperoxide formation at […] nm, spectrophotometer, initial rate
Format in all cases: biochemical
Conditions in all cases: Tris-HCl pH 9.0, 30 °C
Ana-rLOX [1] = biological target: T1, Ana-rLOX (Nostoc sp. PCC 7120 = FACHB-418, UniProt Q8YK97, G578A)
T1 construct: gene all8020

Ana-rLOX [2] = biological target: T2, Ana-rLOX (Nostoc sp. PCC 7120 = FACHB-418, UniProt Q8YK97, S755T)
T2 construct: gene all8020

Ana-rLOX [3] = biological target: T3, Ana-rLOX (Nostoc sp. PCC 7120 = FACHB-418, UniProt Q8YK97, N448D)
T3 construct: gene all8020

Ana-rLOX [4] = biological target: T4, Ana-rLOX (Nostoc sp. PCC 7120 = FACHB-418, UniProt Q8YK97, N448D/G578Q)
T4 construct: gene all8020

Ana-rLOX [5] = biological target: T5, Ana-rLOX (Nostoc sp. PCC 7120 = FACHB-418, UniProt Q8YK97)
T5 construct: gene all8020
T5 sequence (Q8YK97 319-773 limits assumed): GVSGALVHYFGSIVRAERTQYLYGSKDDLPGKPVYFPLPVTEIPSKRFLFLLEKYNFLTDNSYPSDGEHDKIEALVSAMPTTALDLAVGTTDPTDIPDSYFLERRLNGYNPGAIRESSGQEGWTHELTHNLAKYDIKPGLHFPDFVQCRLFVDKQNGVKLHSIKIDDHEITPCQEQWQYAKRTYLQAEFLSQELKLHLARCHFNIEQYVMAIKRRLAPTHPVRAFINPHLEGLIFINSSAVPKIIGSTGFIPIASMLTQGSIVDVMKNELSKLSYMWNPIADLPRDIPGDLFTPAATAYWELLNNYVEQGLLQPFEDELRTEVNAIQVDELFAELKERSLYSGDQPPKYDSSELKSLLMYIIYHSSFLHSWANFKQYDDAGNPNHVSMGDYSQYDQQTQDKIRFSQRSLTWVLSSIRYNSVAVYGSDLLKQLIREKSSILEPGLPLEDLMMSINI

Ana-rLOX [6] = biological target: T6, Ana-rLOX (Nostoc sp. PCC 7120 = FACHB-418, UniProt Q8YK97, N448D/S755Y)
T6 construct: gene all8020
T6 sequence (Q8YK97 319-773 N448D/S755Y): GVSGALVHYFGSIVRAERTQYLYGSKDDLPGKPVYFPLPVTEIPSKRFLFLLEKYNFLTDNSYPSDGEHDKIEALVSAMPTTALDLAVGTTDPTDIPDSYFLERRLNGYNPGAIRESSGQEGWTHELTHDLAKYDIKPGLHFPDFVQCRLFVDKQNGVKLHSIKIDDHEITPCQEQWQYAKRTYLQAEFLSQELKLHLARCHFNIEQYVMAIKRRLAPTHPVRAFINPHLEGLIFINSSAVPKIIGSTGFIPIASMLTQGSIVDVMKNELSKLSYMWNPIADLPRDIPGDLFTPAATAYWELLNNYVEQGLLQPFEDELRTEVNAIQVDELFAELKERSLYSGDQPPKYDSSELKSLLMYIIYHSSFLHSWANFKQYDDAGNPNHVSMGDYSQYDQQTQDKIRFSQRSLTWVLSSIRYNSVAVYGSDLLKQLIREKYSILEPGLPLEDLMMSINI

T2 sequence (Q8YK97 319-773 S755T): as the sequence (Q8YK97 319-773 N448D/S755Y) above, with D130N, Y437T counted along it
T4 sequence (Q8YK97 319-773 N448D/G578Q): as the sequence (Q8YK97 319-773 N448D/S755Y) above, with G260Q, Y437S counted along it
T1 sequence (Q8YK97 319-773 G578A): as the sequence (Q8YK97 319-773 N448D/S755Y) above, with D130N, G260A, Y437S counted along it
T3 sequence (Q8YK97 319-773 N448D): as the sequence (Q8YK97 319-773 N448D/S755Y) above, with Y437S counted along it

- Km (Ana-rLOX [1]): 34 ± 2.3 µM
- Km (Ana-rLOX [2]): 56 ± 4.7 µM
- Km (Ana-rLOX [3]): 30 ± 2.6 µM
- Km (Ana-rLOX [4]): 13 ± 1 µM
- Km (Ana-rLOX [5]): 56 ± 4 µM
- Km (Ana-rLOX [6]): 15 ± 1.1 µM
SMILES: CCCCC/C=C\C/C=C\CCCCCCCC(=O)O [linoleic acid]
